According to ChEMBL document CHEMBL1201862, “PubChem BioAssay data set” (2004):
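All cell lines were grown in 96-well plates and treated with compound for 48 hours. GI50 marks 50% less growth.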 Calls of active or inactive are those of the source. No stated cut-off is given here; in the data, active = GI50 up to about 1.1 µM and inactive = higher.

Experiments:
Test in all cases: NCI anticancer screen, dose series, 48 h
[1] = system: HOP-18
[2] = system: DMS-273
[3] = system: BT-549
[4] = system: DU-145
[5] = system: MDA-MB-231
[6] = system: MDA-N
[7] = system: PC-3
[8] = system: RXF 631
[9] = system: 786-0

## CN1CN(C(=O)N2CN(C)C(=O)N(C)C2)CN(C)C1=O
[1]
  GI50: > 100 µM (inactive)

## O=C(O)C12CC3CC(C1)C2C=C3P(=O)(O)O (stereo not given)
[2]
  GI50: > 100 µM (inactive)

## CN(C)CCNC(=O)c1cccc2nc(-c3ccccc3)oc12
[1]
  GI50: > 61.2 µM (inactive)

## CC(=O)OC1CC[C@@]2(C)C(=CC[C@@H]3[C@@H]2CC[C@]2(C)Nc4nn(S(C)(=O)=O)cc4C[C@@H]32)C1 (stereo not given in full)
[3]
  GI50: 20.3 µM (inactive)
[4]
  GI50: 35.9 µM (inactive)
[5]
  GI50: 31 µM (inactive)
[6]
  GI50: 29 µM (inactive)
[7]
  GI50: 28.2 µM (inactive)

## COC(=O)C1=C(O)C(C(=O)OC)[C@@]2(O)[C@@H](C(=O)OC)[C@H](C)[C@@H](C)[C@@H]1[C@@H]2C(=O)OC (stereo not given in full)
[3]
  GI50: 37.5 µM (inactive)
[4]
  GI50: > 100 µM (inactive)
[5]
  GI50: > 100 µM (inactive)
[6]
  GI50: 22 µM (inactive)

## CCCCCOc1ccc(/C=N\c2ccc(-c3ccc(/N=C\c4ccc(OCCCCC)cc4)c(OC)c3)cc2OC)cc1
[1]
  GI50: 24.3 µM (inactive)
[2]
  GI50: > 100 µM (inactive)

## CCOC(=O)C1=NN(c2ccccc2)C2=CC(C)=NN(C)C(=S)N21
[3]
  GI50: > 100 µM (inactive)
[4]
  GI50: > 100 µM (inactive)
[5]
  GI50: > 100 µM (inactive)
[6]
  GI50: > 100 µM (inactive)
[7]
  GI50: > 100 µM (inactive)

## O=C(/N=N/c1cc(Cl)ccc1Cl)NNc1cc(Cl)ccc1Cl
[3]
  GI50: > 10 µM (inactive)
[4]
  GI50: 30.3 µM (inactive)
[5]
  GI50: 15.7 µM (inactive)
[6]
  GI50: 25.4 µM (inactive)
[7]
  GI50: 10.9 µM (inactive)

## Cc1ccc(C(=O)N/N=C(\N=N\c2cccc(C)c2)c2ccc(N(CCC#N)CCC#N)cc2C)cc1
[4]
  GI50: 73.1 µM (inactive)
[5]
  GI50: > 100 µM (inactive)
[6]
  GI50: 54.7 µM (inactive)
[7]
  GI50: 58.3 µM (inactive)

## Cc1cc(O)nc(NN2C(Cl)C(=O)C2c2c(O)ccc3ccccc23)n1 (stereo not given)
[1]
  GI50: 12 µM (inactive)
[2]
  GI50: 16.4 µM (inactive)

## CC[C@@]1(O)C[C@H](OC2CC(N(C)C)C(OC3CC(O)C(OC4CC(O)C(O)C(C)O4)C(C)O3)C(C)O2)c2c(cc3c(c2O)C(=O)c2c(O)ccc(O)c2C3=O)[C@H]1C(=O)OC (stereo not given in full)
[1]
  GI50: 0.136 µM (active)
[2]
  GI50: 0.0108 µM (active)

## COc1ccc(C(=O)Cc2cc(OC)ccc2OC)cc1
[8]
  GI50: > 100 µM (inactive)
[1]
  GI50: > 100 µM (inactive)
[2]
  GI50: > 100 µM (inactive)

## CC(=O)NNc1nc(C)c(C(=O)NNC(=O)C(=O)Nc2c(C)cccc2C(C)(C)C)s1
[2]
  GI50: 47.1 µM (inactive)

## C=C1CN=C(Nc2ccc(Cl)cc2)S1
[4]
  GI50: > 100 µM (inactive)
[5]
  GI50: > 100 µM (inactive)
[9]
  GI50: > 100 µM (inactive)
[6]
  GI50: > 100 µM (inactive)
[7]
  GI50: > 100 µM (inactive)

## O=C(O)C(CO)NC(=O)C1C(C(=O)O)C(c2ccccc2[N+](=O)[O-])C=C(c2ccco2)N1c1ccncc1 (stereo not given)
[3]
  GI50: 5.85 µM (inactive)
[4]
  GI50: 11.4 µM (inactive)
[5]
  GI50: 3.33 µM (inactive)
[9]
  GI50: 3.08 µM (inactive)
[6]
  GI50: 2.84 µM (inactive)
[7]
  GI50: 9.35 µM (inactive)

## COCC(=O)[C@]1(O)Cc2c(O)c3c(c(O)c2[C@@H](OC2CC(N)C(O)C(C)O2)C1)C(=O)c1c(OC)cccc1C3=O (stereo not given in full)
[3]
  GI50: 0.161 µM (active)
[4]
  GI50: 0.0991 µM (active)
[5]
  GI50: 0.296 µM (active)
[9]
  GI50: 0.0373 µM (active)
[6]
  GI50: 0.0767 µM (active)
[7]
  GI50: 0.0791 µM (active)
[2]
  GI50: 0.0391 µM (active)

## O=c1c2cccnc2ncn1CCCN1CCCCC1
[9]
  GI50: > 100 µM (inactive)
[2]
  GI50: > 100 µM (inactive)

## Cc1nnc(N)s/c1=N/O
[3]
  GI50: > 100 µM (inactive)
[4]
  GI50: > 100 µM (inactive)
[5]
  GI50: > 100 µM (inactive)
[9]
  GI50: > 100 µM (inactive)
[6]
  GI50: > 100 µM (inactive)
[7]
  GI50: > 100 µM (inactive)

## CC(=O)OC1CC2(O)C(CCC3(C)C(c4ccc(=O)oc4)CCC32O)C2(C)CCC(O)C=C12 (stereo not given)
[1]
  GI50: 0.0094 µM (active)
[2]
  GI50: 0.005 µM (active)

## CC(=O)Nc1ccc(/C=C/c2ccc(NC(=O)Nc3ccc(/C=C/c4ccc(NC(C)=O)cc4S(=O)(=O)O)c(S(=O)(=O)O)c3)cc2S(=O)(=O)O)c(S(=O)(=O)O)c1
[1]
  GI50: > 95.5 µM (inactive)
[2]
  GI50: > 87.9 µM (inactive)

## CCCCCCCCCC[C@@H](O)[C@@H]1CC[C@@H]([C@@H]2CC[C@@H]([C@@H](O)CCCCCCCCCCC(O)CC3=CC(C)OC3=O)O2)O1 (stereo not given in full)
[4]
  GI50: 3.98 µM (inactive)
[5]
  GI50: 2.32 µM (inactive)
[7]
  GI50: 5.04 µM (inactive)

## CC(C(=O)OCc1ccccc1)N(Cc1ccccc1)Cc1ccccc1 (stereo not given)
[2]
  GI50: 57.9 µM (inactive)
